Experimental data from patent US7560458B2, “Triazolopyrimidine derivatives as glycogen synthase kinase 3 inhibitors” (Janssen Pharmaceutica, N.V., priority 2003, dated 2009).

Experiments:
[1] = target: GSK3β (Homo sapiens, UniProt P49841); experiment: GSK3beta assay (SPA, biotinylated phosphorylated CREB peptide, ATP-P33); format: biochemical; details: −log IC50 (M); given as ranges (>8; 7-8; <7); read-out: pIC50 (GSK3beta) (converted)
Experimental: (§1) GSK3beta assays were performed at room temperature in a 100 μl reaction volume of 25 mM Tris (ph 7.4) containing 10 mM MgCl2.6H2O 1 mM DTT, 0.1 mg/ml BSA, 5% glyceol and containing 5.7 ng/μl GSK3β, 5 μM biotinylated phosphorylated CREB peptide, 1 μM APT, 0.85 μCi/ml ATP-P^33 and a suitable amount of a test compound of formula (I). After one hour, the reaction was terminated by adding 70 μl of Stop mix (0.1 mM APT, 5 mg/ml streptavidin coated PVT SPA bead pH 11.0). The beads to which the phosphorylated CREB peptide is attached were allowed to settle overnight and the radioactivity of the beads was counted in a microtiterplate scintillation counter and compared with the results obtained in a control experiment (without the presence of a test compound) in order to determine the percentage of GSK3β inhibition. The IC50 value, i.e. the concentration (M) of the test compound at which 50% of GSK3β is inhibited, was calculated from the dose response curve obtained by performing the above-described GSKK3β assay in the presence of different amounts of the test compound.

[2] = target: GSK3alpha (Homo sapiens, UniProt P49840); experiment: GSK3alpha assay (same as the GSK3beta assay, GSK3alpha 0.25 ng/μl); format: biochemical; details: −log IC50 (M); given as ranges (>8; 7-8; <7); read-out: pIC50 (GSK3alpha) (converted)
Chain of GSK3alpha (P49840 whole entry, species assumed): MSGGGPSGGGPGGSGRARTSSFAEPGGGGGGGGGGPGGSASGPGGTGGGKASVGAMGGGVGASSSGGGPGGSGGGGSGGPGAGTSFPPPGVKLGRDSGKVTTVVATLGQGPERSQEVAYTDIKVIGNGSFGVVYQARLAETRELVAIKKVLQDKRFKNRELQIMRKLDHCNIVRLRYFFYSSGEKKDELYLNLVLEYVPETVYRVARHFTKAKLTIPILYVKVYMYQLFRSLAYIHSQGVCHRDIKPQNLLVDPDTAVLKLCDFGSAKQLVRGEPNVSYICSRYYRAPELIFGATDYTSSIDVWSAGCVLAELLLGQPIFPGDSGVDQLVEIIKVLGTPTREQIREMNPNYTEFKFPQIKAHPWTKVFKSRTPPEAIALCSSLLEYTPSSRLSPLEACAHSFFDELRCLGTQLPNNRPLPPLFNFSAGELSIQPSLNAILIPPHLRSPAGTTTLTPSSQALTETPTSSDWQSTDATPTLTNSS
Experimental: as §1
The GSK3alpha assay was performed in the same way as described above for the GSK3beta assay except for the concentration of GSK3alpha which is 0.25 ng/μl.

Chain of GSK3β (P49841 whole entry, species assumed): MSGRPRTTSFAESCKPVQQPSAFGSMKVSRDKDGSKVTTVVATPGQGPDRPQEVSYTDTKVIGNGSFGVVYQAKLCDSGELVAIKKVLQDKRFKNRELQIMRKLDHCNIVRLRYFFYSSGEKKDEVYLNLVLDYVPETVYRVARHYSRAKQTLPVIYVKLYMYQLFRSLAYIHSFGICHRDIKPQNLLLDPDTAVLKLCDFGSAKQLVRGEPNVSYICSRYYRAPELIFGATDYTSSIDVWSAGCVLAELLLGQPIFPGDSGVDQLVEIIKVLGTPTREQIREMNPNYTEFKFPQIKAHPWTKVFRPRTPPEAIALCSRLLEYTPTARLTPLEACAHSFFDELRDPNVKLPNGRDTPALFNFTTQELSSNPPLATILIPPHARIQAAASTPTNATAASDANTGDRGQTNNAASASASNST

Structure (SMILES) | IC50 [1] | IC50 [2]
NCc1cccc(Nc2ncc3nnn(-c4ccccc4)c3n2)c1 [Compound 78] | 1e-08 to 1e-07 M | 1e-08 to 1e-07 M
NCc1cccc(Nc2ncc3nnn(-c4cccc(F)c4)c3n2)c1 [Compound 79] | 1e-08 to 1e-07 M | 1e-08 to 1e-07 M
COCc1cccc(-n2nnc3cnc(Nc4cccc(CNC(C)=O)c4)nc32)c1 [Compound 80] | < 1e-08 M | < 1e-08 M
COCc1cccc(-n2nnc3cnc(Nc4cccc(NC(C)=O)c4)nc32)c1 [Compound 81] | < 1e-08 M | < 1e-08 M
CCOc1ccc(Nc2ncc3nnn(-c4ccccc4)c3n2)cn1 [Compound 82] | 1e-08 to 1e-07 M | < 1e-08 M
CC(=O)Nc1ccc(Nc2ncc3nnn(-c4ccccc4)c3n2)cn1 [Compound 83] | 1e-08 to 1e-07 M | 1e-08 to 1e-07 M
COCc1cccc(-n2nnc3cnc(Nc4cccc(NS(C)(=O)=O)c4)nc32)c1 [Compound 84] | < 1e-08 M | < 1e-08 M
COCc1cccc(-n2nnc3cnc(Nc4cccc(S(N)(=O)=O)c4)nc32)c1 [Compound 85] | 1e-08 to 1e-07 M | < 1e-08 M
COCc1cccc(-n2nnc3cnc(Nc4cccc(C(C)=O)c4)nc32)c1 [Compound 86] | < 1e-08 M | < 1e-08 M
CC(=O)Nc1ccc(Nc2ncc3nnn(-c4cccc(F)c4)c3n2)cn1 [Compound 87] | 1e-08 to 1e-07 M | < 1e-08 M
O=S(=O)(NCCO)c1cccc(Nc2ncc3nnn(-c4cccc(F)c4)c3n2)c1 [Compound 88] | < 1e-08 M | < 1e-08 M
NC(=O)CNC(=O)c1cccc(Nc2ncc3nnn(-c4cccc(F)c4)c3n2)c1 [Compound 89] | < 1e-08 M | < 1e-08 M
COCCNC(=O)c1cccc(Nc2ncc3nnn(-c4cccc(F)c4)c3n2)c1 [Compound 90] | < 1e-08 M | < 1e-08 M
COc1ccc(Nc2ncc3nnn(-c4cccc(F)c4)c3n2)cn1 [Compound 91] | < 1e-08 M | < 1e-08 M
CN(C)S(=O)(=O)c1cccc(Nc2ncc3nnn(-c4cccc(F)c4)c3n2)c1 [Compound 94] | < 1e-08 M | < 1e-08 M
CNS(=O)(=O)c1cccc(Nc2ncc3nnn(-c4cccc(F)c4)c3n2)c1 [Compound 95] | < 1e-08 M | < 1e-08 M

Structure (SMILES) | IC50 [1] | IC50 [2]
COCc1cccc(-n2nnc3cnc(Nc4cccc(S(C)(=O)=O)c4)nc32)c1 [Compound 96] | 1e-08 to 1e-07 M | 1e-08 to 1e-07 M
COCc1cccc(-n2nnc3cnc(Nc4cccc(C#N)c4)nc32)c1 [Compound 97] | < 1e-08 M | < 1e-08 M
NC(=O)CNS(=O)(=O)c1cccc(Nc2ncc3nnn(-c4cccc(F)c4)c3n2)c1 [Compound 98] | < 1e-08 M | < 1e-08 M
CC(=O)NCc1cccc(-n2nnc3cnc(Nc4cccc(NS(C)(=O)=O)c4)nc32)c1 [Compound 99] | < 1e-08 M | < 1e-08 M
CN(C)C(=O)c1cccc(Nc2ncc3nnn(-c4cccc(F)c4)c3n2)c1 [Compound 100] | < 1e-08 M | < 1e-08 M
O=C(NCCO)c1cccc(Nc2ncc3nnn(-c4cccc(F)c4)c3n2)c1 [Compound 101] | < 1e-08 M | < 1e-08 M
CC(=O)NCCNS(=O)(=O)c1cccc(Nc2ncc3nnn(-c4cccc(F)c4)c3n2)c1 [Compound 102] | < 1e-08 M | < 1e-08 M
COCCNS(=O)(=O)c1cccc(Nc2ncc3nnn(-c4cccc(F)c4)c3n2)c1 [Compound 103] | > 1e-09 M | < 1e-08 M
COC(=O)c1cc(Nc2ncc3nnn(-c4cccc(F)c4)c3n2)ccc1NC(C)=O [Compound 104] | < 1e-08 M | < 1e-08 M
CC(=O)NCc1cccc(-n2nnc3cnc(Nc4cccc(C#N)c4)nc32)c1 [Compound 107] | < 1e-08 M | < 1e-08 M
CC(=O)NCc1cccc(Nc2ncc3nnn(-c4cccc(CNC(C)=O)c4)c3n2)c1 [Compound 108] | < 1e-08 M | < 1e-08 M
CC(=O)NCc1cccc(-n2nnc3cnc(Nc4cccc(NC(C)=O)c4)nc32)c1 [Compound 109] | < 1e-08 M | < 1e-08 M
CC(=O)NCc1cccc(-n2nnc3cnc(Nc4cccc(CO)c4)nc32)c1 [Compound 110] | < 1e-08 M | < 1e-08 M
CC(=O)NCc1cccc(-n2nnc3cnc(Nc4cccc(C(C)=O)c4)nc32)c1 [Compound 111] | < 1e-08 M | < 1e-08 M
CC(=O)NCc1cccc(-n2nnc3cnc(Nc4cccc(S(N)(=O)=O)c4)nc32)c1 [Compound 112] | < 1e-08 M | < 1e-08 M
